Assay results from the kinase profiling compilation of Christmann-Franck et al. (2016).

What was measured:
Test in all cases: radiometric filter-binding kinase assay, Kinase HotSpot
Conditions in all cases: compound 0.5 µM; ATP 10 µM
[1] = biological target: ACVR1B (human) (UniProt P36896)
[2] = biological target: AKT1 (human) (UniProt P31749)
[3] = biological target: AURKA (human) (UniProt O14965)
[4] = biological target: AXL (human) (UniProt P30530)
[5] = biological target: BTK (human) (UniProt Q06187)
[6] = biological target: CAMKK2 (human) (UniProt Q96RR4)
[7] = biological target: CDC42BPA (human) (UniProt Q5VT25)
[8] = biological target: CDK9 CCNT1 (human) (UniProt P50750+O60563)
CDK9 CCNT1 (human), sequence (O60563 whole entry, looked up): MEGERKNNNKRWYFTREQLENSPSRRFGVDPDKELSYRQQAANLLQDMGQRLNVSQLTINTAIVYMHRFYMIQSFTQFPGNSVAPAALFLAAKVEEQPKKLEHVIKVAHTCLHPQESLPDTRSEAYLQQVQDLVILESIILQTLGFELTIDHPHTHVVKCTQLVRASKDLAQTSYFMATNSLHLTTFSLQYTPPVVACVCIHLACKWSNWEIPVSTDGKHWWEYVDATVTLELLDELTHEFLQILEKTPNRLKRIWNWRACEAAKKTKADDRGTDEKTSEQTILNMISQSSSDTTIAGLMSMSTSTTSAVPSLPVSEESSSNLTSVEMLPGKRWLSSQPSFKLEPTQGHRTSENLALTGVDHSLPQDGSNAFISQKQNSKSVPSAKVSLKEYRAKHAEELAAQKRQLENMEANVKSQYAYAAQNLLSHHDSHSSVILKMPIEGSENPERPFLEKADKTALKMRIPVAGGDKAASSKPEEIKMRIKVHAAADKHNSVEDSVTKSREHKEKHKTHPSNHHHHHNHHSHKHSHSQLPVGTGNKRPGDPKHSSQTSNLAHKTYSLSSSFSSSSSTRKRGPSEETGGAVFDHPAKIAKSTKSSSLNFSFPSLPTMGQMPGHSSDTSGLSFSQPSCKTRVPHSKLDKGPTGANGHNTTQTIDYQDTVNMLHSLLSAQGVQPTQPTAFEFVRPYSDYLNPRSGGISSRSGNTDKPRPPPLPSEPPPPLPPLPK
CDK9 CCNT1 (human), sequence (P50750 whole entry, looked up): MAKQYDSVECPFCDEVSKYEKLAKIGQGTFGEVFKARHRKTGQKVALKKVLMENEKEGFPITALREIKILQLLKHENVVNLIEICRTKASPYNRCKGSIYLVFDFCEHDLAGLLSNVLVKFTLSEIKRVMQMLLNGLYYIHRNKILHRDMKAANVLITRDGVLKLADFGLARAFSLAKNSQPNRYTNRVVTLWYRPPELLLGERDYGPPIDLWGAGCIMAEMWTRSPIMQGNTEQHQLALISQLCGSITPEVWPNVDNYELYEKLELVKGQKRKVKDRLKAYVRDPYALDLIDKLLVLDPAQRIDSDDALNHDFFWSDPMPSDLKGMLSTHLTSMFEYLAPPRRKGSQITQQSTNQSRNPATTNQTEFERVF

[9] = biological target: CSNK1A1 (human) (UniProt P48729)
[10] = biological target: CSNK1G3 (human) (UniProt Q9Y6M4)
[11] = biological target: CSNK2A1 (human) (UniProt P68400)
[12] = biological target: EPHA5 (human) (UniProt P54756)
[13] = biological target: EPHB2 (human) (UniProt P29323)
[14] = biological target: FGFR3 (human) (UniProt P22607)
[15] = biological target: GSK3A (human) (UniProt P49840)
[16] = biological target: JAK1 JH1 catalytic (human) (UniProt P23458)
JAK1 JH1 catalytic (human), sequence (P23458 whole entry, looked up): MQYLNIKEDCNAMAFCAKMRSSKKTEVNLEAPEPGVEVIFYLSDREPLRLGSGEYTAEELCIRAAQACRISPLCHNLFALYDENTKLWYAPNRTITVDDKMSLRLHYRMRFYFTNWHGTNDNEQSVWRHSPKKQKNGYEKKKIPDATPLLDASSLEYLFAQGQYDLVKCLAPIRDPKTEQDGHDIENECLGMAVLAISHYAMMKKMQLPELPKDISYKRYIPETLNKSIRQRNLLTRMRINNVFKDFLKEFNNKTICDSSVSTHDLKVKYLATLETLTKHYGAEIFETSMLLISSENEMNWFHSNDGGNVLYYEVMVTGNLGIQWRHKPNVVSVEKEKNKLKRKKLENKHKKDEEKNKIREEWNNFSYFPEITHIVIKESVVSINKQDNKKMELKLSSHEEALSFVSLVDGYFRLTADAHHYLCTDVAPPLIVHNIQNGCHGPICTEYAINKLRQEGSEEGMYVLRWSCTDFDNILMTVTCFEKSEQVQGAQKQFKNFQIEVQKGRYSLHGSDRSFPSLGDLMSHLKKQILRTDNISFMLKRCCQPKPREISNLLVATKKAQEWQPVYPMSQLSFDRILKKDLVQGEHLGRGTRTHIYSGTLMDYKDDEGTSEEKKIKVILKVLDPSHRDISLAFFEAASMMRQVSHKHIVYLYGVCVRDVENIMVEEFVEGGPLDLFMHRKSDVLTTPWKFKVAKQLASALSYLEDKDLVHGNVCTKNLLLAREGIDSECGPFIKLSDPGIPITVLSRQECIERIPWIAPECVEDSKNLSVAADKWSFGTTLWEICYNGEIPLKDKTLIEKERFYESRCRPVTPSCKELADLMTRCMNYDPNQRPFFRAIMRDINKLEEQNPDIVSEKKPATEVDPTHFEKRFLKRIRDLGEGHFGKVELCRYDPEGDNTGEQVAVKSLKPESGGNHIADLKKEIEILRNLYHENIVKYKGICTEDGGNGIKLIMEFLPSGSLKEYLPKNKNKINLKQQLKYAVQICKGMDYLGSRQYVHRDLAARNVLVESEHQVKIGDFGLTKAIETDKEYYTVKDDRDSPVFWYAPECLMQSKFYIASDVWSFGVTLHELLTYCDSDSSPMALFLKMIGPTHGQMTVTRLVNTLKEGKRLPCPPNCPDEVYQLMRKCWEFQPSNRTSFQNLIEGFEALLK

[17] = biological target: MAP3K3 (human) (UniProt Q99759)
[18] = biological target: MAP4K2 (human) (UniProt Q12851)
[19] = biological target: MAPK12 (human) (UniProt P53778)
[20] = biological target: MAPK14 (human) (UniProt Q16539)
[21] = biological target: MARK3 (human) (UniProt P27448)
[22] = biological target: MARK4 (human) (UniProt Q96L34)
[23] = biological target: MYLK (human) (UniProt Q15746)
MYLK (human), sequence (Q15746 whole entry, looked up): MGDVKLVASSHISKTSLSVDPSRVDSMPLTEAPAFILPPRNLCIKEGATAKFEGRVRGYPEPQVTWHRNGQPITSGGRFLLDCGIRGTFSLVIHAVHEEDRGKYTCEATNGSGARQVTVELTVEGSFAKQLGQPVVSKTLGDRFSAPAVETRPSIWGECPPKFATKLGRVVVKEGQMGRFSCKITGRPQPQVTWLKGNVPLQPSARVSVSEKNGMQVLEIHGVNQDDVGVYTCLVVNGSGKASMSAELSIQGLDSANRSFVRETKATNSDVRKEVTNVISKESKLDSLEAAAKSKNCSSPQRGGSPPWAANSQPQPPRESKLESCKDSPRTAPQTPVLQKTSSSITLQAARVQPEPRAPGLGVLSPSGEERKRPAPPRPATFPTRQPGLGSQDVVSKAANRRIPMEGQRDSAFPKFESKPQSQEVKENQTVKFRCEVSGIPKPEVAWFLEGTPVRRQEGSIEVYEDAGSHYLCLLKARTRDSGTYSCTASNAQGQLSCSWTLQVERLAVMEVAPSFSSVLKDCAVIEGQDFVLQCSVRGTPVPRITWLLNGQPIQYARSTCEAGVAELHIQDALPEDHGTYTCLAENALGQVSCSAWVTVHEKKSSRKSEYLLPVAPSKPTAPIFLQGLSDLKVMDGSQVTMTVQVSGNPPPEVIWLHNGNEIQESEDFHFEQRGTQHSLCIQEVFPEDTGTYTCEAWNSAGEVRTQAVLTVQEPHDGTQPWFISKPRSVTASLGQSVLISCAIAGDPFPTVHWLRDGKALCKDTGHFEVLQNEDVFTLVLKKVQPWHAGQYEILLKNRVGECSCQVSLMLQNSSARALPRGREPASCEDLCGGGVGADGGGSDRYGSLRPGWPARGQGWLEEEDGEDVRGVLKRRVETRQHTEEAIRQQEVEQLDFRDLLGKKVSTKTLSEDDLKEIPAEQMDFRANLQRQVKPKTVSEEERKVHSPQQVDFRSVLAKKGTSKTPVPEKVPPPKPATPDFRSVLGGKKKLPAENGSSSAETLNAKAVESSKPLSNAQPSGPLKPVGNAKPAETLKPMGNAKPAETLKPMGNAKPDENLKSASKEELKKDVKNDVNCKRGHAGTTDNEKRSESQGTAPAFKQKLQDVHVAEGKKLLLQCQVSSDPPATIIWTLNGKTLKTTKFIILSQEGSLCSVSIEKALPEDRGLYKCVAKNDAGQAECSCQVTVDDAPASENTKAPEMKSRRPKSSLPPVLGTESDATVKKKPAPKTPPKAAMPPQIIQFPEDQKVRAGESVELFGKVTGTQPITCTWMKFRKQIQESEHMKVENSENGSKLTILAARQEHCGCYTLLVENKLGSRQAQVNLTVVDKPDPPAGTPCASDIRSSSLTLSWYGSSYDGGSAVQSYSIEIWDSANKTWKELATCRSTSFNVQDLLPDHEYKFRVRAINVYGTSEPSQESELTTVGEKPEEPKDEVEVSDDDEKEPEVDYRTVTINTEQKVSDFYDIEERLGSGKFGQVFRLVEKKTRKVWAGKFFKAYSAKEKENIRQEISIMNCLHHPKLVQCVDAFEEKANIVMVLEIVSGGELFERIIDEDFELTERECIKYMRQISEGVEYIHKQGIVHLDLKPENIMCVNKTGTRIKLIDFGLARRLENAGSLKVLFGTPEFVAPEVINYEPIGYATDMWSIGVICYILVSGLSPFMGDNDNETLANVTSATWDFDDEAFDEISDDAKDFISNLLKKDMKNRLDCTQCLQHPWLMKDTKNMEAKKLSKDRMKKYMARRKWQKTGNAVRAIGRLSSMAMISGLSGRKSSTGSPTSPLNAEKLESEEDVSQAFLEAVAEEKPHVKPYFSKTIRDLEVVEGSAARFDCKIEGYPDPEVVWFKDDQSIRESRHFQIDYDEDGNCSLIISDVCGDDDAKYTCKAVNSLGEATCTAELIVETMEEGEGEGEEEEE

[24] = biological target: NEK4 (human) (UniProt P51957)
[25] = biological target: PAK6 (human) (UniProt Q9NQU5)
[26] = biological target: PLK2 (human) (UniProt Q9NYY3)
[27] = biological target: PRKACA (human) (UniProt P17612)
[28] = biological target: PRKD2 (human) (UniProt Q9BZL6)
[29] = biological target: PTK2B (human) (UniProt Q14289)
[30] = biological target: RAF1 (human) (UniProt P04049)
[31] = biological target: RIPK2 (human) (UniProt O43353)
[32] = biological target: ROCK2 (human) (UniProt O75116)
[33] = biological target: SLK (human) (UniProt Q9H2G2)
[34] = biological target: SRC (human) (UniProt P12931)
[35] = biological target: STK17A (human) (UniProt Q9UEE5)
[36] = biological target: STK24 (human) (UniProt Q9Y6E0)
STK24 (human), sequence (Q9Y6E0 whole entry, looked up): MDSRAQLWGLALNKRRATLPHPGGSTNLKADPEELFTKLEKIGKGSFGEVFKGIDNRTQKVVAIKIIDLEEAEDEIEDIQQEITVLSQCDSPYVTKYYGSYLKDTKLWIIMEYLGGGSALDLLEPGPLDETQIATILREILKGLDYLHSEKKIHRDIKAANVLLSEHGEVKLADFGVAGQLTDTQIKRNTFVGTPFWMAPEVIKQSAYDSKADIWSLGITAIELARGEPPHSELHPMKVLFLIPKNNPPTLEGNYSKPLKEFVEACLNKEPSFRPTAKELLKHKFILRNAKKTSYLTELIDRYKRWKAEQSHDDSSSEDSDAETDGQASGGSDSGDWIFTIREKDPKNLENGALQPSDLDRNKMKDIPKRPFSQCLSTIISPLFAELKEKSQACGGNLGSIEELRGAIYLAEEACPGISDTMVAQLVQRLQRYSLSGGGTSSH

[37] = biological target: SYK (human) (UniProt P43405)
[38] = biological target: TEC (human) (UniProt P42680)
[39] = biological target: TGFBR1 (human) (UniProt P36897)
[40] = biological target: TSSK2 (human) (UniProt Q96PF2)
[41] = biological target: TYK2 JH1 catalytic (human) (UniProt P29597)
[42] = biological target: ZAP70 (human) (UniProt P43403)

AURKA (human), sequence (O14965 whole entry, looked up): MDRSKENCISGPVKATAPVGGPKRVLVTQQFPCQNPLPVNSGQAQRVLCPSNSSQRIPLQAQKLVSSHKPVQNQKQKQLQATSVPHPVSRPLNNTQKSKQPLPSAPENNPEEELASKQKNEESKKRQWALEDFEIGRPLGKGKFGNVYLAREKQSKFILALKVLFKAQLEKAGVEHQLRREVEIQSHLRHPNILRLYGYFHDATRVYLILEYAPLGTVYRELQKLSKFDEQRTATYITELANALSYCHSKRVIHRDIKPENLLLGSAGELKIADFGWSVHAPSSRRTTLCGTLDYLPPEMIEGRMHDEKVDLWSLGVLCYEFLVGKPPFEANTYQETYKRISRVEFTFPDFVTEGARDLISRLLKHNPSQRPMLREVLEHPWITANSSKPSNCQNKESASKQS

## COc1ccc(S(=O)(=O)N(CCO)c2ccccc2CN(C)C/C=C/c2ccc(Cl)cc2)cc1
[1]
  residual activity: 93.2%
[2]
  residual activity: 106%
[3]
  residual activity: 97.5%
[4]
  residual activity: 104%
[5]
  residual activity: 96.4%
[6]
  residual activity: 90.7%
[7]
  residual activity: 100%
[8]
  residual activity: 103%
[9]
  residual activity: 99.3%
[10]
  residual activity: 98.3%
[11]
  residual activity: 99.5%
[12]
  residual activity: 98.1%
[13]
  residual activity: 97.7%
[14]
  residual activity: 70.1%
[15]
  residual activity: 99.9%
[16]
  residual activity: 111%
[17]
  residual activity: 99.8%
[18]
  residual activity: 92.6%
[19]
  residual activity: 98.9%
[20]
  residual activity: 95.1%
[21]
  residual activity: 102%
[22]
  residual activity: 102%
[23]
  residual activity: 98.4%
[24]
  residual activity: 98.7%
[25]
  residual activity: 101%
[26]
  residual activity: 102%
[27]
  residual activity: 104%
[28]
  residual activity: 99.8%
[29]
  residual activity: 106%
[30]
  residual activity: 93.7%
[31]
  residual activity: 87%
[32]
  residual activity: 94.6%
[33]
  residual activity: 103%
[34]
  residual activity: 92.7%
[35]
  residual activity: 102%
[36]
  residual activity: 101%
[37]
  residual activity: 101%
[38]
  residual activity: 101%
[39]
  residual activity: 101%
[40]
  residual activity: 107%
[41]
  residual activity: 110%
[42]
  residual activity: 84.7%

## CC(C)(C)c1cc(C=C(C#N)C#N)cc(Br)c1O
[1]
  residual activity: 108%
[2]
  residual activity: 108%
[3]
  residual activity: 89.8%
[4]
  residual activity: 103%
[5]
  residual activity: 101%
[6]
  residual activity: 92.5%
[7]
  residual activity: 101%
[8]
  residual activity: 95.4%
[9]
  residual activity: 84.5%
[10]
  residual activity: 85.8%
[11]
  residual activity: 99.3%
[12]
  residual activity: 106%
[13]
  residual activity: 100%
[14]
  residual activity: 92.8%
[15]
  residual activity: 104%
[16]
  residual activity: 107%
[17]
  residual activity: 118%
[18]
  residual activity: 113%
[19]
  residual activity: 102%
[20]
  residual activity: 98.3%
[21]
  residual activity: 105%
[22]
  residual activity: 103%
[23]
  residual activity: 90.6%
[24]
  residual activity: 93.7%
[25]
  residual activity: 101%
[26]
  residual activity: 92.6%
[27]
  residual activity: 102%
[28]
  residual activity: 108%
[29]
  residual activity: 99.3%
[30]
  residual activity: 104%
[31]
  residual activity: 32.8%
[32]
  residual activity: 95.6%
[33]
  residual activity: 94.7%
[34]
  residual activity: 87.4%
[35]
  residual activity: 92.3%
[36]
  residual activity: 96.3%
[37]
  residual activity: 97.6%
[38]
  residual activity: 171%
[39]
  residual activity: 103%
[40]
  residual activity: 96.6%
[41]
  residual activity: 61.3%
[42]
  residual activity: 91.6%

## O=C(c1cc2cc(O)ccc2[nH]1)c1cc2cc(O)ccc2[nH]1
[1]
  residual activity: 98.9%
[2]
  residual activity: 98.2%
[3]
  residual activity: 71.6%
[4]
  residual activity: 90.1%
[5]
  residual activity: 86.8%
[6]
  residual activity: 84.2%
[7]
  residual activity: 90.2%
[8]
  residual activity: 76.6%
[9]
  residual activity: 96.3%
[10]
  residual activity: 77.2%
[11]
  residual activity: 88.7%
[12]
  residual activity: 100%
[13]
  residual activity: 76.7%
[14]
  residual activity: 92.1%
[15]
  residual activity: 75.7%
[16]
  residual activity: 98.7%
[17]
  residual activity: 96%
[18]
  residual activity: 67.1%
[19]
  residual activity: 97.9%
[20]
  residual activity: 103%
[21]
  residual activity: 84.4%
[22]
  residual activity: 55.3%
[23]
  residual activity: 91.4%
[24]
  residual activity: 87.6%
[25]
  residual activity: 74.4%
[26]
  residual activity: 102%
[27]
  residual activity: 107%
[28]
  residual activity: 71.7%
[29]
  residual activity: 85.5%
[30]
  residual activity: 104%
[31]
  residual activity: 37.8%
[32]
  residual activity: 92.9%
[33]
  residual activity: 78.6%
[34]
  residual activity: 36.4%
[35]
  residual activity: 51.7%
[36]
  residual activity: 70.4%
[37]
  residual activity: 72%
[38]
  residual activity: 105%
[39]
  residual activity: 93.4%
[40]
  residual activity: 93.6%
[41]
  residual activity: 66.7%
[42]
  residual activity: 101%

## COc1cc2ncnc(Nc3ccc(OCc4ccccc4)cc3)c2cc1OC
[1]
  residual activity: 102%
[2]
  residual activity: 103%
[3]
  residual activity: 91.3%
[4]
  residual activity: 94.8%
[5]
  residual activity: 90.6%
[6]
  residual activity: 99.7%
[7]
  residual activity: 101%
[8]
  residual activity: 94.5%
[9]
  residual activity: 105%
[10]
  residual activity: 92.9%
[11]
  residual activity: 95.8%
[12]
  residual activity: 105%
[13]
  residual activity: 93.9%
[14]
  residual activity: 102%
[15]
  residual activity: 104%
[16]
  residual activity: 101%
[17]
  residual activity: 88.7%
[18]
  residual activity: 114%
[19]
  residual activity: 102%
[20]
  residual activity: 101%
[21]
  residual activity: 106%
[22]
  residual activity: 99.5%
[23]
  residual activity: 95%
[24]
  residual activity: 86.9%
[25]
  residual activity: 95.4%
[26]
  residual activity: 109%
[27]
  residual activity: 101%
[28]
  residual activity: 101%
[29]
  residual activity: 99.8%
[30]
  residual activity: 61%
[31]
  residual activity: 61.6%
[32]
  residual activity: 96%
[33]
  residual activity: 76.4%
[34]
  residual activity: 102%
[35]
  residual activity: 99.6%
[36]
  residual activity: 104%
[37]
  residual activity: 93.1%
[38]
  residual activity: 106%
[39]
  residual activity: 95.7%
[40]
  residual activity: 104%
[41]
  residual activity: 103%
[42]
  residual activity: 87.6%
